Legend:
[1] = test system: Desulfovibrio vulgaris biofilm; assay: Biofilm removal, Crystal Violet Assay (anaerobic, 24 h treatment of pre-formed biofilm); format: cell-based
Method: A lyophilized D. vulgaris pure culture received from ATTCC was resuspended in 500 ul of MB 1249. Aseptically, the content was transferred to a 5¬mL tube of MB1249 medium. The culture was incubated in an anaerobic chamber at 30° C. for 72 hrs. Subsequently, a stock culture with a final concentration of 25% glycerol was prepared by adding equal volumes of culture and 50% glycerol. 1 ml of culture was then transferred to 2-ml cryogenic vials and stored AT-80c. The purity of the stock culture was evaluated through PCR, by amplifying the 16S rDNA region, and thus, it was verified that the original ATCC sample was a pure culture.
A 10% culture was prepared by taking 1 mL of stock culture and adding it to 9 mL of MB1249, then the culture was placed into a 30° C. side incubator within the chamber and incubated for 72 hours. After 72 hours of incubation, the 10-ml D. vulgaris culture was added to 40 ml of MB1249 medium and incubated for 48 hours. After the incubation time, the optical density of the culture was determined by taking 100 μL of culture and adding it to 900 μL of MB1249 in a cuvette. Another cuvette was filled with 1 mL of MB1249 for a blank. Then, each of culture cuvettes were read and their optical density (O.D.) was recorded by using the Thermofisher Spectronic 200 Spectrophotometer at 620 nm. Using a C1V1=C2V2 calculation and the optical density, the final concentration of culture added to the 96 well plates was ˜0.1 O.D. Then, NUNC Round bottom 96 well plates were filled with culture and anaerobic PBS+10% MB1249. The plates were placed into the side incubator of the anaerobic chamber at 30° C. for 24 hours to form biofilm.
After 24 hours of incubation at 30° C., all plates were removed from the incubator and the volume from each well was taken out with a multi-channel pipette. Then, the wells were re-filled with PBS+10% MB1249 and treatments.
The sugar analogues used in the treatment were α-Methyl D-Mannoside (αMM) and 2-Deoxy-D-Glucose (2DG). Both αMM and 2DG were purchased from Sigma. Stocks were prepared (W/V) by weighing sugar and adding anaerobic water inside the anaerobic chamber. The Glutaraldehyde, AQUCAR™ GA50 (“Glutaraldehyde”), was prepared outside of the chamber (V/V) as a safety measure. Each of the components were added at their respective concentrations for a final volume of 200 ul per well. In Table 3, the concentrations used for the synergy experiments are listed. Each experiment was done with at least six replicates for different treatments and at least 8 replicates for non-treatment controls.
Plates were then sealed with a titer-top and placed into anaerobic boxes with a gas pack. Then, incubated in an aerobic shaking incubator, 30° C. at 115 RPM. After 24 hours, the plates were processed using a Crystal Violet Assay.
After 24 hours of treatment, all the treatment solution was gently removed from plates using a multi-channel pipette. Then, 250 μL of DI water was re-filled into the wells. This step was then repeated so the plates were each rinsed twice. If residual DI water was in plates, they were inverted and gently patted onto a thick paper towel. Then, the plates were air dried in a ventilated hood.
To fix the biofilm in the wells, 250 μL per well of methanol was used, waiting time 5 minutes. This methanol was then removed and allowed to air dry. […] Then, the plates were placed into the Biotek Cytation 5, and the optical density (OD) was read at 600 nm. […]

[2] = test system: anaerobic D. vulgaris biofilms; details: high levels of sugar analogs needed; WO2019/018087; cited from earlier work

Compound	% OD compared to no-treatment control ([1]; standalone, 2000 ppm)	dispersal of anaerobic D. vulgaris biofilms [2]	% OD compared to no-treatment control ([1]; Glutaraldehyde 25 ppm alone (2DG 0 ppm), 2DG combination experiment)	% OD compared to no-treatment control ([1]; Glutaraldehyde 25 ppm alone (αMM 0 ppm), αMM combination experiment)	% OD compared to no-treatment control ([1]; standalone, 2500 ppm)
O=CC[C@@H](O)[C@H](O)[C@H](O)CO [2DG, 2-Deoxy-D-Glucose]	101.7%	disperse anaerobic D. vulgaris biofilms			
O=CCCCC=O [Glutaraldehyde]			92.7%	99.3%	97.4%
CO[C@H]1O[C@H](CO)[C@@H](O)[C@H](O)[C@@H]1O [αMM, α-Methyl D-Mannoside]	100.3%	disperse anaerobic D. vulgaris biofilms			

— patent US12509373B2, “Composition and method for the removal of biofilm” (LANXESS Corporation, priority 2020, dated 2025)
